A word on the CC50: it is the concentration that lowers cell viability or growth by half.

Like-named read-outs stand apart in the source and are kept apart here.

This note sets out measurements from patent US12221459B2, “Cancer treatment with (2,2-bishydroxymethyl) methylenecyclopropane nucleotides” (MEDIVIR AB, priority 2018, dated 2025).

The subject of data set [1] is MV4-11 cells, human B-myelomonocytic leukemia. The data set is described as follows: Leukemia cell line activity assay (Cell Counting Kit-8, 5 days), MV4-11.
Protocol: (§1) Compounds of the invention were evaluated for activity against the leukemia cell lines THP-1, EOL-1 and MV4-11, using the following assay:
(§2) Test compounds were made up to 10 mM stock solution in DMSO
(§3) Leukemia cells (THP-1, EOL-1 and MV4-11) were grown in a cell culture flask 75 cm^2 with approximately 100 ml complete cell medium. The cells were counted using a Scepter-hand held automated cell counter, using 60 μm sensors (Millipore) and suspended in complete cell medium to 2×10^5 cells. 100 μl of the cell suspension were seeded to all wells (2×10^4 cells/well).
(§4) The compounds were tested in twelve concentrations, 10-fold serial dilutions, 50 μM-5×10^−10 μM.
(§5) 100 μl from a compound dilution plate were transferred to the cell assay plate=200 μl/well total volume and incubated for 5 days, at 37° C., 5% CO2 incubator.
(§6) After 5 days, 10l of KIT-8 was added and the culture was incubated for 3-4 hours, at 37° C., 5% CO2 incubator.
(§7) Plate were read in the spectrophotometer at wavelength 450 nm with a reference filter of 620 nm.
(§8) CC50 values are calculated by plotting the degree of inhibition (compared to the vehicle ctrl) against the logarithm of the compound concentration. Result values in the dilution series are fitted to a 4-parameter sigmoidal dose-response curve described by the expression: F(x)=D+(A−D)/(1+(x/C)^B) where: • A=Minimum • B=Slope. • C=Inflection point. The inflection point is defined as the point on the curve where the curvature changes direction or signs. • D=Maximum • F=fraction inhibition
For data set [2], the system named is THP-1 (human acute monocytic leukemia). The data set is described as follows: Leukemia cell line activity assay (Cell Counting Kit-8, 5 days), THP-1. (In general: Tetrazolium dyes change colour on reduction, which living cells bring about.)
Protocol: as §1, §2, §3, §4, §5, §6, §7, §8
The subject of another data set is EOL-1 (human). The data set is described as follows: Leukemia cell line activity assay (Cell Counting Kit-8, 5 days), EOL-1. The conditions noted are these: read-out: EOL.1 CC50.
The mark [3] stands for this setting: Homo sapiens, MV4-11, 120 h, read-out: MV4-11 CC50, MV4-11 cells, 5 days incubation.
The mark [4] stands for this setting: Homo sapiens, THP-1, 120 h, read-out: THP-1 CC50, THP-1 cells, 5 days incubation.
Setting [5] is: read-out: MV4-11 CC50, MV4-11 cells, 5 days incubation.
Where [6] appears, read: read-out: THP-1 CC50, THP-1 cells, 5 days incubation.

Protocol for EOL-1 (human): as §1, §2, §3, §4, §5, §6, §7, §8

Take `CCCC(CCC)COC(=O)[C@H](C)N[P@](=O)(OCC1(COC(=O)C(C)C)C/C1=C/n1ccc(N)nc1=O)Oc1ccccc1` (single isomer, unassigned) [Example 16-1]: the CC50 in data set [1] (setting [3]) stood at 190 nM; in data set [2] (setting [4]) it was 350 nM.
As for `COC(=O)[C@H](CC(C)C)N[P@](=O)(OCC1(COC(=O)C(C)C)C/C1=C/n1cnc2c(=O)[nH]c(N)nc21)Oc1ccccc1` (single isomer, unassigned) [Example 18-2], the CC50 worked out at 800 nM in data set [1] (setting [3]) and 1800 nM in data set [2] (setting [4]).
Take `CCC(CC)COC(=O)[C@H](Cc1ccccc1)N[P@](=O)(OCC1(COC(=O)C(C)C)C/C1=C/n1cnc2c(=O)[nH]c(N)nc21)Oc1ccccc1` (single isomer, unassigned) [Example 20-2]: the half-maximal cytotoxic concentration (CC50) in the data set with EOL-1 (human) (Homo sapiens, EOL1, 120 h) was 3600 nM; in data set [1] (setting [3]), 380 nM; in data set [2] (setting [4]), 900 nM.
For `CCC(CC)COC(=O)[C@H](CC(C)C)N[P@](=O)(OCC1(COC(=O)C(C)C)C/C1=C/n1cnc2c(=O)[nH]c(N)nc21)Oc1ccccc1` (single isomer, unassigned) [Example 21-2], the figures for the CC50 in data set [1] (setting [3]) and in data set [2] (setting [4]) were 510 nM and 390 nM, respectively.
On the same counts, the results for `CCC[C@H](C)OC(=O)[C@H](C)N[P@](=O)(OCC1(COC(=O)C(C)C)C/C1=C/n1ccc(N)nc1=O)Oc1ccccc1` (single isomer, unassigned) [Example 28-2] are 1000 nM and 880 nM.
With `CCCC(=O)OCC1(CO[P@@](=O)(N[C@@H](C)C(=O)O[C@@H](C)CCC)Oc2ccccc2)C/C1=C/n1ccc(N)nc1=O` (single isomer, unassigned) [Example 29-1], the CC50 in data set [1] (setting [3]) worked out at 1200 nM; in data set [2] (setting [4]), 710 nM.
On to `CCCC(=O)OCC1(CO[P@@](=O)(N[C@@H](C)C(=O)OCC(CCC)CCC)Oc2ccccc2)C/C1=C/n1ccc(N)nc1=O` (single isomer, unassigned) [Example 32-1], for which the 50% cytotoxic concentration (CC50) in the data set with EOL-1 (human) (Homo sapiens, EOL1, 120 h) turned out to be 59 nM; in data set [1] (setting [5]) it was 180 nM; in data set [2] (setting [6]), 190 nM.
In the case of `CCC(CC)COC(=O)C[C@H](N[P@](=O)(OCC1(COC(=O)C(C)C)C/C1=C/n1cnc2c(=O)[nH]c(N)nc21)Oc1ccccc1)C(=O)OCC(CC)CC` (single isomer, unassigned) [Example 35-1], the CC50 in data set [1] (setting [3]) is 180 nM; in data set [2] (setting [4]), 290 nM.
The corresponding values for `CCCC(CCC)COC(=O)[C@H](C)N[P@](=O)(OCC1(COC(=O)C(C)C)C/C1=C/n1cc(F)c(N)nc1=O)Oc1ccccc1` (single isomer, unassigned) [Example 39-2] are 2600 nM and 600 nM.
Consider `CCCC(=O)OCC1(CO[P@@](=O)(N[C@@H](C)C(=O)OCC(CCC)CCC)Oc2ccccc2)C/C1=C/n1ccc(N)nc1=O` (single isomer, unassigned) [Example 45-1], for which the CC50 in the data set with EOL-1 (human) (EOL-1 cells, 5 days incubation) worked out at 59 nM; in data set [1] (setting [5]), 180 nM; in data set [2] (setting [6]), 190 nM.
`CCCC(=O)OCC1(CO[P@@](=O)(N[C@@H](C)C(=O)OCC(CCC)CCC)Oc2ccccc2)C/C1=C/n1ccc(N)nc1=O` (single isomer, unassigned) [Example 45-2]: the CC50 in data set [1] (setting [5]) stood at 2200 nM; in data set [2] (setting [6]), 2000 nM.
With `Nc1nc2c(ncn2/C=C2/CC2(CO)CO)c(=O)[nH]1` [Cyclopropavir, 2,2-bis-(hydroxymethyl) cyclopropylidene methyl guanine, reference compound], the CC50 was found to be 11000 nM in the data set with EOL-1 (human) (Homo sapiens, EOL1, 120 h); 11000 nM in data set [1] (Homo sapiens, MV4-11, 120 h, read-out: MV4-11 CC50); 5100 nM in data set [2] (Homo sapiens, THP-1, 120 h, read-out: THP-1 CC50).
Consider `CCCC(CCC)COC(=O)[C@H](C)N[P@](=O)(OC[C@@]1(COC(=O)[C@@H](N)C(C)C)C/C1=C/n1cnc2c(=O)[nH]c(N)nc21)Oc1ccccc1` [Example 1f-1, (S)-((S,Z)-2-((2-Amino-6-oxo-1H-purin-9(6H)-yl)methylene)-1-((((S)-(((S)-1-oxo-1-((2-propylpentyl)oxy)propan-2-yl)amino)(phenoxy)phosphoryl)oxy)methyl)cyclopropyl)methyl 2-amino-3-methylbutanoate], for which the CC50 with EOL-1 (human) (Homo sapiens, EOL1, 120 h) amounted to 120 nM; in data set [1] (setting [3]), 460 nM; in data set [2] (setting [4]) it was 670 nM.
On the same counts, the results for `CCC[C@H](C)OC(=O)[C@H](C)N[P@](=O)(OC[C@@]1(COC(=O)C(C)C)C/C1=C/n1cnc2c(=O)[nH]c(N)nc21)Oc1ccccc1` [Example 6-2, ((S,Z)-2-((2-amino-6-oxo-1H-purin-9(6H)-yl)methylene)-1-((((S)-(((S)-1-oxo-1-((S)-pentan-2-yloxy)propan-2-yl)amino)(phenoxy)phosphoryl)oxy)methyl)cyclopropyl)methyl isobutyrate] are 190 nM, 430 nM and 740 nM.
On the same counts, the results for `CCCC(=O)OC[C@]1(CO[P@@](=O)(N[C@@H](C)C(=O)OCC(CCC)CCC)Oc2ccccc2)C/C1=C/n1cnc2c(=O)[nH]c(N)nc21` [Example 11-1, ((S,Z)-2-((2-Amino-6-oxo-1H-purin-9(6H)-yl)methylene)-1-((((S)-(((S)-1-oxo-1-((2-propylpentyl)oxy)propan-2-yl)amino)(phenoxy)phosphoryl)oxy)methyl)cyclopropyl)methyl butyrate] are 140 nM, 71 nM and 190 nM.
On to `CCCC(=O)OC[C@]1(CO[P@@](=O)(N[C@@H](C)C(=O)O[C@@H](C)CCC)Oc2ccc(Br)cc2)C/C1=C/n1cnc2c(=O)[nH]c(N)nc21` [Example 12-1, ((S,Z)-2-((2-Amino-6-oxo-1H-purin-9(6H)-yl)methylene)-1-((((S)-(4-bromophenoxy)(((S)-1-oxo-1-((S)-pentan-2-yloxy)propan-2-yl)amino)phosphoryl)oxy)methyl)cyclopropyl)methyl butyrate], for which the 50% cytotoxic concentration (CC50) in the data set on EOL-1 (human) (Homo sapiens, EOL1, 120 h) turned out to be 170 nM; in data set [2] (setting [4]), 290 nM.
For the compound `CCCC(CCC)COC(=O)[C@H](C)N[P@](=O)(OC[C@@]1(COC(C)=O)C/C1=C/n1cnc2c(=O)[nH]c(N)nc21)Oc1ccccc1` [Example 13-1, (S)-2-propylpentyl 2-(((S)-(((S,Z)-1-(acetoxymethyl)-2-((2-amino-6-oxo-1H-purin-9(6H)-yl)methylene)cyclopropyl)methoxy)(phenoxy)phosphoryl)amino)propanoate], the figures for the 50% cytotoxic concentration (CC50) in data set [1] (setting [3]) and in data set [2] (setting [4]) were 1100 nM and 870 nM, respectively.
For the compound `CCC[C@H](C)OC(=O)[C@H](C)N[P@](=O)(OC[C@@]1(COC(=O)[C@@H](N)C(C)C)C/C1=C/n1cnc2c(=O)[nH]c(N)nc21)Oc1ccccc1` [Example 15-1, (S)-((S,Z)-2-((2-amino-6-oxo-1H-purin-9(6H)-yl)methylene)-1-((((S)-(((S)-1-oxo-1-((S)-pentan-2-yloxy)propan-2-yl)amino)(phenoxy)phosphoryl)oxy)methyl)cyclopropyl)methyl 2-amino-3-methylbutanoate], in data set [2] (setting [4]), the cytotoxic concentration (CC50) was determined as 1000 nM.
As to `CCC(CC)COC(=O)[C@H](Cc1ccccc1)N[P@](=O)(OCC1(COC(=O)[C@@H](N)C(C)C)C/C1=C/n1cnc2c(=O)[nH]c(N)nc21)Oc1ccccc1` (stereo partly drawn) [Example 23, ((Z)-2-((2-amino-6-oxo-1,6-dihydro-9H-purin-9-yl)methylene)-1-((((S)-(((S)-1-(2-ethylbutoxy)-1-oxo-3-phenylpropan-2-yl)amino)(phenoxy)phosphoryl)oxy)methyl)cyclopropyl)methyl L-valinate], the CC50 in data set [1] (setting [3]) came out at 850 nM; in data set [2] (setting [4]), 2400 nM.
On to `CCCCCCCCCCCCCCCCCC(=O)OCC1(CO[P@@](=O)(N[C@@H](C)C(=O)O[C@@H](C)CCC)Oc2ccccc2)C/C1=C/n1cnc2c(=O)[nH]c(N)nc21` (stereo partly drawn) [Example 24, ((Z)-2-((2-amino-6-oxo-1,6-dihydro-9H-purin-9-yl)methylene)-1-((((S)-(((S)-1-oxo-1-(((S)-pentan-2-yl)oxy)propan-2-yl)amino)(phenoxy)phosphoryl)oxy)methyl)cyclopropyl)methyl stearate], for which the CC50 in data set [1] (setting [3]) turned out to be 2100 nM; in data set [2] (setting [4]), 3800 nM.
In the case of `CCC(CC)COC(=O)[C@H](Cc1ccccc1)N[P@](=O)(OCC1(COC(=O)C(C)C)C/C1=C/n1ccc(N)nc1=O)Oc1ccccc1` (stereo partly drawn) [Example 25-2, 2-ethylbutyl((S)-(((Z)-2-((4-amino-2-oxopyrimidin-1 (2H)-yl)methylene)-1-((isobutyryloxy)methyl)cyclopropyl)methoxy)(phenoxy)phosphoryl)-L-phenylalaninate], the CC50 in the data set with EOL-1 (human) (EOL-1 cells, 5 days incubation) is 100 nM; in data set [1] (setting [5]), 86 nM; in data set [2] (setting [6]), 410 nM.
Consider `CCCC(=O)OCC1(CO[P@@](=O)(N[C@@H](C)C(=O)O[C@@H](C)CCC)Oc2ccccc2)C/C1=C/n1cnc2c(=O)[nH]c(N)nc21` (stereo partly drawn) [Example 30-1, ((Z)-2-((2-amino-6-oxo-1,6-dihydro-9H-purin-9-yl)methylene)-1-((((S)-(((S)-1-oxo-1-(((S)-pentan-2-yl)ox)propan-2-yl)amino)(phenoxy)phosphoryl)oxy)methyl)cyclopropyl)methyl butyrate], for which the CC50 in the data set on EOL-1 (human) (Homo sapiens, EOL1, 120 h) was determined as 940 nM; in data set [1] (setting [3]), 430 nM; in data set [2] (setting [4]) it was 460 nM.
For the compound `CCCC(=O)OCC1(CO[P@@](=O)(N[C@@H](C)C(=O)OCC(CCC)CCC)Oc2ccccc2)C/C1=C/n1cc(F)c(N)nc1=O` (stereo partly drawn) [Example 40, ((Z)-2-((4-amino-5-fluoro-2-oxopyrimidin-1(2H)-yl)methylene)-1-((((S)-(((S)-1-oxo-1-((2-propylpentyl)oxy)propan-2-yl)amino)(phenoxy)phosphoryl)oxy)methyl)cyclopropyl)methyl butyrate], in data set [1] (setting [3]), the CC50 was 3100 nM.
For “(S)-(S)-Pentan-2-yl 2-(((S)-(((S,Z)-1-(acetoxymethyl)-2-((2-amino-6-oxo-1H-purin-9(6H)-yl)methylene)cyclopropyl)methoxy)(4-bromophenoxy)phosphoryl)amino) [Example 8-1]”, the half-maximal cytotoxic concentration (CC50) was found to be 340 nM in the data set with EOL-1 (human) (EOL-1 cells, 5 days incubation) and 260 nM in data set [2] (setting [6]).
